In a compilation of properties of binary mixtures (doi:10.1007/s10953-020-00967-3):

Experiment: xn = mol fraction of the nth substance listed
Conditions: 101 kPa

Work on `CN(C)C=O` + CCCC[n+]1ccn(C)c1.F[B-](F)(F)F yielded a viscosity (293.15 K, x2 = 0) of 0.88 mPa·s, a viscosity (298.15 K, x2 = 0) of 0.83 mPa·s and a viscosity (303.15 K, x2 = 0) of 0.78 mPa·s. The viscosity (308.15 K, x2 = 0) was 0.74 mPa·s, the viscosity (313.15 K, x2 = 0) was 0.7 mPa·s and the viscosity (318.15 K, x2 = 0) was 0.67 mPa·s. The viscosity (323.15 K, x2 = 0) was 0.63 mPa·s.
Work on `CCCC[n+]1ccn(C)c1.F[B-](F)(F)F` + CN(C)C=O yielded a viscosity (293.15 K, x1 = 0.16) of 5.71 mPa·s, a viscosity (293.15 K, x1 = 0.24) of 9 mPa·s and a viscosity (293.15 K, x1 = 0.34) of 13.7 mPa·s. For the same compound, the viscosity (293.15 K, x1 = 0.43) was 18.4 mPa·s, the viscosity (293.15 K, x1 = 0.55) was 26.7 mPa·s and the viscosity (293.15 K, x1 = 0.65) was 38.3 mPa·s. For the same compound, the viscosity (293.15 K, x1 = 0.74) was 55.2 mPa·s, the viscosity (293.15 K, x1 = 0.83) was 77 mPa·s and the viscosity (293.15 K, x1 = 0.94) was 105 mPa·s. The viscosity (293.15 K, x1 = 1) was 125 mPa·s, the viscosity (298.15 K, x1 = 0.08) was 2.56 mPa·s and the viscosity (298.15 K, x1 = 0.16) was 3.95 mPa·s. It also gave a viscosity (298.15 K, x1 = 0.24) of 5.82 mPa·s, a viscosity (298.15 K, x1 = 0.34) of 8.9 mPa·s and a viscosity (298.15 K, x1 = 0.43) of 12.1 mPa·s. The viscosity (298.15 K, x1 = 0.55) was 17.7 mPa·s, the viscosity (298.15 K, x1 = 0.65) was 27.6 mPa·s and the viscosity (298.15 K, x1 = 1) was 105 mPa·s. It also gave a viscosity (303.15 K, x1 = 0.08) of 2.3 mPa·s, a viscosity (303.15 K, x1 = 0.16) of 3.21 mPa·s and a viscosity (303.15 K, x1 = 0.24) of 4.17 mPa·s. The viscosity (303.15 K, x1 = 0.34) was 6.22 mPa·s, the viscosity (303.15 K, x1 = 0.43) was 8 mPa·s and the viscosity (303.15 K, x1 = 0.55) was 12.7 mPa·s. It also gave a viscosity (303.15 K, x1 = 0.65) of 20.7 mPa·s, a viscosity (303.15 K, x1 = 0.74) of 33.6 mPa·s and a viscosity (303.15 K, x1 = 0.83) of 51.9 mPa·s. It also gave a viscosity (303.15 K, x1 = 1) of 88 mPa·s, a viscosity (308.15 K, x1 = 0.08) of 2.27 mPa·s and a viscosity (308.15 K, x1 = 0.16) of 3.29 mPa·s. For the same compound, the viscosity (308.15 K, x1 = 0.24) was 3.9 mPa·s, the viscosity (308.15 K, x1 = 0.34) was 4.65 mPa·s and the viscosity (308.15 K, x1 = 0.55) was 9.6 mPa·s. For the same compound, the viscosity (308.15 K, x1 = 0.65) was 16 mPa·s, the viscosity (308.15 K, x1 = 0.74) was 26.2 mPa·s and the viscosity (308.15 K, x1 = 0.83) was 42.4 mPa·s. The viscosity (308.15 K, x1 = 0.94) was 61.9 mPa·s, the viscosity (308.15 K, x1 = 1) was 72 mPa·s and the viscosity (313.15 K, x1 = 0.08) was 1.95 mPa·s. The viscosity (313.15 K, x1 = 0.24) was 2.61 mPa·s, the viscosity (313.15 K, x1 = 0.34) was 2.49 mPa·s and the viscosity (313.15 K, x1 = 0.43) was 2.98 mPa·s. For the same compound, the viscosity (313.15 K, x1 = 0.55) was 5.74 mPa·s, the viscosity (313.15 K, x1 = 0.65) was 10.4 mPa·s and the viscosity (313.15 K, x1 = 0.83) was 32.6 mPa·s. For the same compound, the viscosity (313.15 K, x1 = 0.94) was 49.3 mPa·s, the viscosity (313.15 K, x1 = 1) was 57.7 mPa·s and the viscosity (318.15 K, x1 = 0.16) was 1.84 mPa·s. The viscosity (318.15 K, x1 = 0.24) was 1.59 mPa·s, the viscosity (318.15 K, x1 = 0.34) was 0.55 mPa·s and the viscosity (318.15 K, x1 = 0.65) was 5.23 mPa·s. It also gave a viscosity (318.15 K, x1 = 0.83) of 23.6 mPa·s, a viscosity (318.15 K, x1 = 0.94) of 37.5 mPa·s and a viscosity (318.15 K, x1 = 1) of 44 mPa·s. The viscosity (323.15 K, x1 = 0.16) was 1.63 mPa·s, the viscosity (323.15 K, x1 = 0.24) was 1.88 mPa·s and the viscosity (323.15 K, x1 = 0.34) was 1.38 mPa·s. It also gave a viscosity (323.15 K, x1 = 0.43) of 0.75 mPa·s, a viscosity (323.15 K, x1 = 0.55) of 0.5 mPa·s and a viscosity (323.15 K, x1 = 0.65) of 2.3 mPa·s. The viscosity (323.15 K, x1 = 0.83) was 15.9 mPa·s and the viscosity (323.15 K, x1 = 1) was 31.6 mPa·s.
